# From US10676436B2, “NLRX1 ligands” (Landos Biopharma, Inc., priority 2018, dated 2020)
# Columns and labels:
# [1] = tested on: CD4+ T cells; experiment: Immunological screening in vitro in CD4+ splenocytes, flow cytometry; format: cell-based, C57BL/6 mice
# Excerpt: Spleens were excised from C57BL/6 mice. Spleens were crushed between the frosted ends of microscope slides and filtered to provide a cellular suspension. Red blood cells were lysed through hypotonic lysis. Remaining cells were washed and filtered. CD4+ T cells were enriched within the suspension using magnetic sorting based negative selection. Cells were collected and plated within 96 well plates coated with anti-CD3 and cultured in the presence of NX-13, NX-37, NX-43, NX-44, or NX-50 at 0, 0.1, 1 or 10 micromolar; NX-53, NX-54, NX-55, or NX-56 at 0, 0.1, or 1 micromolar; or NX-45 at 10, 50 or 100 nanomolar for 48 h. During the last 6 h of culture, cells were stimulated with phorbol 12-myristate-13-acetate (PMA) and ionomycin.
# Cells were collected from 96 well plates and stained with a cocktail of antibodies for immunophenotyping by flow cytometry. Culture supernatant was collected and assayed for cytokine concentrations by cytometric bead array. Data was captured on a BD FACS Celesta and analyzed using FacsDiva.
# [2] = tested on: peripheral blood mononuclear cells (PBMCs) of Crohn's disease patients; experiment: Ex vivo treatment of PBMCs of Crohn's disease patients, flow cytometry; format: cell-based, human
# Method: (§1) Samples were obtained from male and female donors clinically categorized as having moderate to severe disease. Age and current medications were not used as exclusion criteria. Whole blood was collected into heparinized vacuum tubes. Whole blood was diluted 1:3 volumes with sterile phosphate buffered saline. LeucoSep (Greiner) were prepared by addition of Lymphocyte Separation Media followed by 15 second centrifugation at max speed. Diluted whole blood was added to LeucoSep tubes. After centrifugation (2000×g, 20 min), PBMCs were collected from the interphase by Pasteur pipette. Remaining red blood cells were lysed by hypotonic lysis and suspension was filtered through a […] cell strainer. PBMCs were washed and re-suspended in sterile cell culture media, RPMI containing 10% fetal bovine serum, 2.5% Hepes solution, 1% L-glutamine, 1% penicillin/streptomycin, 1% sodium pyruvate, and 1% essential amino acids (complete RPMI).
# (§2) Target cells were incubated for 24 h in complete RPMI culture media at 37° C. Cells were incubated in the presence of NX-13 ranging in concentration from 1 nM to 100 nM. NX-13 stock solution was prepared at 100 mM in dimethyl sulfoxide (DMSO) and diluted to desired concentration in culture media. DMSO concentrations were adjusted to be equal across all doses and vehicle treatments. Six hours prior to assay, cells were stimulated with phorbol 12-myristate 13-acetate (PMA) and ionomycin to stimulate cellular activation. Cells were assayed for desired data at 24 h.
# (§3) Prior to collection, cells were incubated BD GolgiStop (2 μL GolgiStop to 3 mL of total media) to allow intracellular accumulation of cytokines. Cells were live stained with extracellular (CD45, CD3, CD4, CD8, CD11b) and intracellular (FOXP3, IL-10, IL-4, IFNγ, TNFα) in a sequential manner. Data was acquired on a BD FACs Celesta and analyzed using FACSDiva. Non-viable and non-singlet cells were excluded from analysis. Data is presented as percentage of CD45+ cells or % viable, singlets.
# [3] = biological target: T1, Human NLRX1 (NLRX1-WT) (Homo sapiens, UniProt Q86UT6); experiment: Surface plasmon resonance binding to NLRX1-WT
# T1 construct: made in house; host or cells: Pichia pastoris
# T1 sequence (Q86UT6 87-975): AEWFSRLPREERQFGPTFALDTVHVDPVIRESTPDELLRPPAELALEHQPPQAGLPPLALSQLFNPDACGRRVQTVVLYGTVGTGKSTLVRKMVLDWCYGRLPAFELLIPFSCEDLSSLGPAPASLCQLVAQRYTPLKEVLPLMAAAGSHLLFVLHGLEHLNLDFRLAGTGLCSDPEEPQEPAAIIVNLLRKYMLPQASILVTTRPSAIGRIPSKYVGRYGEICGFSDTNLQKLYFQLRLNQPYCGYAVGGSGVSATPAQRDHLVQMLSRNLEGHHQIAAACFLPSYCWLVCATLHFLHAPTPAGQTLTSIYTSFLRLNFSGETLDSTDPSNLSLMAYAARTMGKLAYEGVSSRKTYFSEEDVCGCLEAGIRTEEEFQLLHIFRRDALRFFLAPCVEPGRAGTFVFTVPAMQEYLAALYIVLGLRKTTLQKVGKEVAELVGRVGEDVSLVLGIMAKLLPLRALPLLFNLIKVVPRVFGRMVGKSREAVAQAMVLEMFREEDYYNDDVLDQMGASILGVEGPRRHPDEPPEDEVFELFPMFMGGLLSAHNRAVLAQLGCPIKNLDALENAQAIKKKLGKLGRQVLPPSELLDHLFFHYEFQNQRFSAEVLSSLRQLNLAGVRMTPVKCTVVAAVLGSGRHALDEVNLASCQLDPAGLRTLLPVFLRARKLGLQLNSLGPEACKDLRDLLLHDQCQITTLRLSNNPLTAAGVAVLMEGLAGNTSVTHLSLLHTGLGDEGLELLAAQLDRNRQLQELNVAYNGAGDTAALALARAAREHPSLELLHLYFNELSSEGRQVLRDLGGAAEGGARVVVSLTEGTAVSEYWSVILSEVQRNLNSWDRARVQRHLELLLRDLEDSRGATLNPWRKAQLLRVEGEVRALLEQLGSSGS
# Method: NLRX1 production and purification. Human NLRX1 (www.uniprot.org; UniProtKB—Q86UT6 (NLRX1 HUMAN)) was cloned into E. coli, amplified and transfected in Pichia pastoris. P. pastoris was plated onto adenine selective media. Stable transfected colonies were selected and grown within YPD broth at 30° C. for 24 hours, 240 RPM shaking. Starter culture was used to inoculate base media (1% yeast extract, 2% peptone, 1% sorbitol, 2% yeast nitrogen base) containing biotin and buffered with potassium phosphate. Inoculated base media was incubated for 48 hours at 30° C., 240 RPM. P. pastoris was then pelleted by centrifugation and resuspended in expression media (1% sorbitol, 2% yeast nitrogen base) containing biotin and buffered with potassium phosphate. Culture was induced daily for protein production through addition of methanol and incubated for a total of 4 days at 28° C., 240 RPM. After incubation, cells were pelleted by centrifugation and lysed by sonication. Recombinant NLRX1 protein was purified by fast protein liquid chromatography (AktaPrime) using immobilized metal affinity chromatography. Fractions of protein were eluted in 1 mL aliquots and evaluated for NLRX1 content. A mutated NLRX1 protein was generated using similar methods to disrupt binding within the predicted binding site through altering four residues to alanine (D677A, F680A, F681A, and E684A).
# A Biacore T200 was used to evaluate binding to the NLRX1 protein. NLRX1-WT and NLRX1-Mutant were used as proteins to immobilize onto the CM5 sensor chip. NLRX1-WT was diluted in 10 mM sodium acetate buffer at pH 4.0 and immobilized onto the flow cell to a level of ˜3700 RU, using standard amine coupling chemistry. NLRX1-Mutant was diluted in 10 mM sodium acetate buffer at pH 4.0 and immobilized onto the flow cell to a level of ˜3100 RU, using standard amine coupling chemistry. 20 mM MOPS, 150 mM NaCl, 5 mM sodium acetate, 1 mM EDTA, 0.05% Tween-20, pH 8.0 buffer (Running buffer) was used as the immobilization running buffer. Based on the immobilized response values, theoretical Rmax values were calculated. The Rmax values assume 1:1 interaction mechanism. Overnight kinetics were performed for all analytes binding to the immobilized proteins. The kinetics experiments were performed in the μL/min. presence of running buffer+1% DMSO. The flow rate of all solutions was maintained at 50 Analyte concentrations were 0 μM, 2.5 μM, 5 μM 10 μM 20 μM and 40 μM.
# [4] = tested on: peripheral blood mononuclear cells (PBMCs) of ulcerative colitis patients; experiment: Ex vivo treatment of PBMCs of ulcerative colitis patients, flow cytometry; format: cell-based, human
# Method: as §1, §2, §3
# [5] = wild-type cells, 48 h, PMA and ionomycin
# [6] = PBMCs from Crohn's disease patients
# [7] = ulcerative colitis samples, 1 nM
# [8] = ulcerative colitis samples, 1 to 100 nM, 24 h
compound,measurement,setting,value
"Cc1cccc(Oc2cc(Oc3cccc(C)n3)cc(Oc3cccc(C)n3)c2)n1 [NX-13, 1,3,5-tris (6-methylpyridin-2-yloxy) benzene]",function at NLRX1 concluded from the cytokine results,[1],activators of NLRX1
same,effects on IFNγ and TNFα producing CD4+ T cells in the absence of NLRX1,[1]; NLRX1 deficient cells,these effects were lost
same,proportion of IFNγ producing (IFNγ+) CD4+ T cells,[1]; [5],reduced
same,proportion of TNFα producing (TNFα+) CD4+ T cells,[1]; [5],reduced
same,concentrations at which IFNγ+ cells decreased,[2],above 50 nM
same,concentrations at which IL10+ CD4+ T cells increased,[2],≥ 50 nM
same,IFNγ+ cells,[2]; [6],Dose dependent decreases
same,IL-4 producing CD4+ T cells,[2]; [6],potently decreased
same,TNFα producing CD4+ T cells,[2]; [6],potently decreased
same,percentage of IL10+ CD4+ T cells,[2]; [6],increased
same,concentrations at which IL-4 producing CD4+ T cells decreased,[2]; as low as,≥ 10 nM
same,concentrations at which TNFα producing CD4+ T cells decreased,[2]; as low as,≥ 10 nM
same,binding to NLRX1 by surface plasmon resonance (in words),[3],bind to NLRX1
same,Kd,"[3]; 1:1 binding model fitting, read-out: steady state dissociation constant KD",30.2 µM
same,amount of TNFα present in each cell (mean fluorescent intensity),[4]; in a dose dependent manner,reduced
same,concentrations with significant reductions of IFNγ producing cells,[4]; ulcerative colitis samples,≥ 10 nM
same,concentrations with significant reductions of TNFα producing cells,[4]; ulcerative colitis samples,≥ 10 nM
same,IFNγ producing cells at 1 nM,[4]; [7],significant decrease
same,TNF producing cells at 1 nM,[4]; [7],significant reductions were not observed
same,percentage of IFNγ producing CD4+ T cells,[4]; [8],decreased
same,percentage of TNFα producing CD4+ T cells,[4]; [8],decreased
